Assay results taken from ChEMBL document CHEMBL1150752, “Inhibition of cow's milk xanthine oxidase by flavonoids” (J Nat Prod, 1988).

How the values were obtained:
[1] = biological target: T1, Xanthine dehydrogenase/oxidase (Bos taurus, UniProt P80457); assay: Inhibition of cow milk xanthine oxidase
[2] = biological target: T1, Xanthine dehydrogenase/oxidase; assay: Inhibition of cow milk xanthine oxidase at 50 ug/mL; details: cattle

T1 sequence (P80457 whole entry): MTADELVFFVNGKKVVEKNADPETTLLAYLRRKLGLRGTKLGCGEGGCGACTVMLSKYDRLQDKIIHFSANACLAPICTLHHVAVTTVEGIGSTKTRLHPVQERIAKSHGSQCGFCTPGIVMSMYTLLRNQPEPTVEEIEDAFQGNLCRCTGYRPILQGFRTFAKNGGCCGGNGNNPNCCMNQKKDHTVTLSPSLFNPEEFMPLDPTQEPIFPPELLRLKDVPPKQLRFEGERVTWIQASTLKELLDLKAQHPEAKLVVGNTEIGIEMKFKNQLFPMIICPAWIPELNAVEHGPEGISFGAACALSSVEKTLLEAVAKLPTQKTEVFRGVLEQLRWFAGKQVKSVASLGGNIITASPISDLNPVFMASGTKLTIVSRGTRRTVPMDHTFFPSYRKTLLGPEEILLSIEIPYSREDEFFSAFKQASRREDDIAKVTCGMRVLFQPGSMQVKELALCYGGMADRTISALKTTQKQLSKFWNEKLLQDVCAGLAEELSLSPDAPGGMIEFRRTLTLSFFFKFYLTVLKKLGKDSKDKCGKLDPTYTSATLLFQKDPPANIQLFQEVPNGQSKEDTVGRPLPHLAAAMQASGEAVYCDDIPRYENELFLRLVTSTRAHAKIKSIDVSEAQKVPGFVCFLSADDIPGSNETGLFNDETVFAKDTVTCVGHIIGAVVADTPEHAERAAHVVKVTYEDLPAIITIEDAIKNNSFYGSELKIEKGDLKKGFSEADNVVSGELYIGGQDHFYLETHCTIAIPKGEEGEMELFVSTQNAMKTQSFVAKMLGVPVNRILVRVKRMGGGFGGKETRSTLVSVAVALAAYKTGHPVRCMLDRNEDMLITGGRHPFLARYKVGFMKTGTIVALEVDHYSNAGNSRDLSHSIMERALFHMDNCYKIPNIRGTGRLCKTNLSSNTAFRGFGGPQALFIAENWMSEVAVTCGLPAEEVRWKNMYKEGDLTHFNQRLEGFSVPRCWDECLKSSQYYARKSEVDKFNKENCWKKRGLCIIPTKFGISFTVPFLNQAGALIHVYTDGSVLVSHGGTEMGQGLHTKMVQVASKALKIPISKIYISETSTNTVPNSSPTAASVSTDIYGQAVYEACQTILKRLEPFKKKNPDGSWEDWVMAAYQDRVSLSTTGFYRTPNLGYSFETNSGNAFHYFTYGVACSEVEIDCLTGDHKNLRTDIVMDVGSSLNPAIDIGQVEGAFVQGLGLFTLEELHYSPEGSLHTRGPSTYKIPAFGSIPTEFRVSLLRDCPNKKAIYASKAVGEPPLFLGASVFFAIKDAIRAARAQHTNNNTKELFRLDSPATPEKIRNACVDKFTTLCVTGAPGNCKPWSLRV

| IC50 [1] [µM] | inhibition at 50 µg/mL [2] [%] | Compound |
| --- | --- | --- |
| 35.6 | 69.1 | COc1c(-c2ccc(O[C@@H]3O[C@H](CO)[C@@H](O)[C@H](O)[C@H]3O)c(O)c2)oc2cc(O)cc(O)c2c1=O |
| 0.03 | 95 | COc1c(O)cc2oc(-c3ccc(O)cc3)c(OC)c(=O)c2c1O [3,6-DIMETHOXY KAEMPFEROL] |
| 31.6 | 98.5 | COc1c(-c2ccc(O)c(O)c2)oc2cc(O)cc(O)c2c1=O [3-O-METHYLQUERCETIN] |
| 14.1 | 55.7 | COc1ccc(-c2cc(=O)c3c(O)cc(O)cc3o2)cc1 [ACACETIN] |
| 35.3 | 100 | O=c1cc(-c2ccc(O)c(-c3c(O)cc(O)c4c(=O)cc(-c5ccc(O)cc5)oc34)c2)oc2cc(O)cc(O)c12 [AMENTOFLAVONE] |
| 22.3 | 97.2 | O=C1CC(c2ccc(O)c(O)c2)Oc2c1c(O)cc(O)c2[C@@H]1C(=O)c2c(O)cc(O)cc2O[C@H]1c1ccc(O)cc1 (some centres not stated) [FUKUGETIN] |
|  | 22.2 | COc1cc(-c2oc3cc(O)cc(O)c3c(=O)c2O[C@@H]2O[C@H](CO[C@@H]3O[C@@H](C)[C@H](O)[C@@H](O)[C@H]3O)[C@@H](O)[C@H](O)[C@H]2O)ccc1O [NARCISSIN] |
|  | 32.1 | COc1ccc(-c2cc(=O)c3c(O)c(OC)c(O)cc3o2)cc1 [PECTOLINARIGENIN] |
|  | 11.5 | COc1ccc(-c2cc(=O)c3c(O)c(OC)c(O[C@@H]4O[C@H](CO[C@@H]5O[C@@H](C)[C@H](O)[C@@H](O)[C@H]5O)[C@@H](O)[C@H](O)[C@H]4O)cc3o2)cc1 [PECTOLINARIN] |
| 34.6 | 90.3 | COc1cc(-c2oc3cc(O)cc(O)c3c(=O)c2OS(=O)(=O)O)ccc1O [PERSICARIN] |
|  | 0 | CC(C)=CCc1c(O[C@@H]2O[C@H](CO)[C@@H](O)[C@H](O)[C@H]2O)cc(O)c2c1O[C@H](c1ccc(O)cc1)[C@@H](O)C2=O [PHELLAMURIN] |
|  | 0 | COc1ccc([C@@H]2CC(=O)c3c(O)cc(O[C@@H]4O[C@H](CO)[C@@H](O)[C@H](O)[C@H]4O[C@@H]4O[C@@H](C)[C@H](O)[C@@H](O)[C@H]4O)cc3O2)cc1 [PONCIRIN] |
|  | 36.5 | O=C(O)[C@H]1O[C@@H](Oc2c(-c3ccc(O)c(O)c3)oc3cc(O)cc(O)c3c2=O)[C@H](O)[C@@H](O)[C@@H]1O [QUERCETIN GLUCURONIDE] |
|  | 33.1 | O=c1c(O[C@@H]2OC[C@@H](O)[C@H](O)[C@H]2O)c(-c2ccc(O)c(O)c2)oc2cc(O)cc(O)c12 [REYNOUTRIN] |
|  | 82.9 | O=c1c(O)c(-c2cc(O)c(O)c(O)c2)oc2cc(O)ccc12 [ROBINETIN] |
|  | 0 | COc1cc(O)c2c(c1)O[C@H](c1ccc(O)cc1)CC2=O [SAKURANETIN] |
| 12.6 | 67.3 | O=c1cc(-c2ccc(O)cc2)oc2cc(O)c(O)c(O)c12 [SCUTELLAREIN] |
|  | 24.9 | COc1cc2oc(-c3ccc(O)cc3)cc(=O)c2c(O)c1[C@@H]1O[C@H](CO)[C@@H](O)[C@H](O)[C@H]1O [SWERTISIN] |
|  | 0 | COc1ccc(-c2cc(=O)c3c(O)cc(O[C@@H]4O[C@H](CO)[C@@H](O)[C@H](O)[C@H]4O)cc3o2)cc1 [TILIANINE] |
|  | 16.1 | O=c1c(O[C@@H]2O[C@H](CO)[C@H](O)[C@H](O)[C@H]2O)c(-c2ccc(O)cc2)oc2cc(O)cc(O)c12 [TRIFOLIN] |
| 176 | 50.2 | COc1c(O)cc(O)c2c(=O)cc(-c3ccccc3)oc12 [WOGONIN] |

The remaining lines, values behind:

| Compound | IC50 [1] [µM] | inhibition at 50 µg/mL [2] [%] |
| --- | --- | --- |
| O=c1cc(-c2ccc(O)c(O)c2)oc2cc(O[C@@H]3O[C@H](CO)[C@@H](O)[C@H](O)[C@H]3O)cc(O)c12 (single isomer, unassigned) [GALUTEOLIN] | 75.9 | 67.2 |
| O=c1cc(-c2ccccc2)oc2cc(O)c(O)c(O)c12 [BAICALEIN] | 3.3 | 85.5 |
| O=C1c2c(O)cc(O)cc2O[C@H](c2ccc(O)cc2)[C@H]1O [DIHYDROKAEMPFEROL] | 93.8 | 66.9 |
| O=c1cc(-c2ccc(O)c(O)c2)oc2c([C@@H]3O[C@H](CO)[C@@H](O)[C@H](O)[C@H]3O)c(O)cc(O)c12 [ORIENTIN] |  | 15.3 |
| O=C1C[C@@H](c2ccc(O)cc2)Oc2cc(O[C@@H]3O[C@H](CO)[C@@H](O)[C@H](O)[C@H]3O)cc(O)c21 [PRUNIN] |  | 4.2 |
| O=c1c(O)c(-c2ccc(O)c(O)c2)oc2cc(O[C@@H]3O[C@H](CO)[C@@H](O)[C@H](O)[C@H]3O)cc(O)c12 [QUERCIMERITRIN] |  | 0 |
| C[C@@H]1O[C@@H](O[C@H]2[C@H](Oc3cc(O)c4c(=O)cc(-c5ccc(O)cc5)oc4c3)O[C@H](CO)[C@@H](O)[C@@H]2O)[C@H](O)[C@H](O)[C@H]1O [RHOIFOLIN] |  | 12.9 |
| COc1ccc(-c2cc(=O)c3c(O)cc(O)c(-c4cc(-c5cc(=O)c6c(O)cc(OC)cc6o5)ccc4OC)c3o2)cc1 [SCIADOPITISIN] |  | 0 |
| O=C(O)[C@H]1O[C@@H](Oc2cc3oc(-c4ccc(O)cc4)cc(=O)c3c(O)c2O)[C@H](O)[C@@H](O)[C@@H]1O [SCUTELLARIN] |  | 16.6 |
| O=c1c(-c2ccc(O[C@@H]3O[C@H](CO)[C@@H](O)[C@H](O)[C@H]3O)cc2)coc2cc(O)cc(O)c12 [SOPHORICOSIDE] |  | 15.3 |
| COc1c(O[C@@H]2O[C@H](CO)[C@@H](O)[C@H](O)[C@H]2O)cc2occ(-c3ccc(O)cc3)c(=O)c2c1O [TECTORIDIN] |  | 0 |
| COc1c(O)cc2occ(-c3ccc(O)cc3)c(=O)c2c1O [TECTORIGENIN] |  | 0 |
| COc1c(-c2ccc(O)c(O)c2)oc2cc(O[C@@H]3O[C@H](CO)[C@@H](O)[C@H](O)[C@H]3O)cc(O)c2c1=O [TRANSILIN] |  | 39.5 |
| O=c1cc(-c2ccc(O)cc2)oc2c([C@@H]3O[C@H](CO)[C@@H](O)[C@H](O)[C@H]3O)c(O)cc(O)c12 [VITEXIN] |  | 0 |
